These are literature values, as cited in patent US20040156894A1, “Use of edible acids in fast-dispersing pharmaceutical solid dosage forms” (priority 2003, published 2004).

Molecules are shown by their SMILES. Converted amounts (≈) assume the structure as drawn.

Turning to `CS(=O)(=O)c1ccc(C2=C(c3ccccc3)C(=O)OC2)cc1` [rofecoxib], the water solubility is 4 µg/mL (≈ 12.7 µM).

Consider `CN1C(C(=O)Nc2ccccn2)=C(O)c2ccccc2S1(=O)=O` [piroxicam], for which the water solubility was less than 1000 µg/mL.
